Assay results published in US6858574B2, “Process for making perfume containing surfactant compositions having perfume burst when diluted” (Unilever Home & Personal Care USA, division of Conopco, Inc., priority 2002, dated 2005).
Read-outs that look alike come from different tables or passages of the source. Marks after values point to notes of the source that are not given here.

How the values were obtained:
[1] = Fragrance burst in shower liquids with different surfactant concentrations; type: physicochemical; details: sodium laurate at 5, 10, 15 (20) wt. % (FIG. 6)
[2] = Fragrance burst (perfume headspace) of single perfumes in 5% sodium laurate shower product diluted through the CMC; type: physicochemical; details: diluted through the CMC (FIG. 3)
Description: It is precisely this “burst” or increase in headspace (e.g., from start of dilution up until CMC) and methods for determining in what compositions it will occur that is the basis of the subject invention.
Several different fragrance molecules were tested experimentally to validate the theoretical predictions. Limonene, p-cymene, α-pinene, tetrahydrolinolool, α-ionone, γ-methyl ionone, benzyl acetate and 2-phenoxylethanol were tested in a 5% sodium laurate shower product and diluted a number of times through the CMC (FIG. 3).

[3] = GC headspace vs dilution of components of a perfume mixture in 5 wt. % sodium laurate formulation; type: physicochemical; details: twelve-component perfume mixture, 5 wt. % sodium laurate (FIG. 9)
Description: A typical fully formulated perfume used in a commercial product, e.g., personal wash formulation, usually is a multi-component composition in which the properties of each perfume component can vary dramatically. A typical perfume mixture in a 5 wt. % sodium laurate formulation was tested for its “perfume burst” behaviour upon dilution. […] Each component has a unique dilution curve (GC headspace vs. dilution factor) governed by the factors (hydrophobicity, volatility, etc) discussed previously.

[4] = Fragrance burst in shower liquids with surfactants of different CMC; type: physicochemical; details: 5% sodium laureth sulfate (CMC=0.0011) vs 5% sodium laurate (CMC=0.005) (FIG. 8)
Description: Limonene and γ-Methyl Ionone were tested in two different shower liquid samples. One product was formulated with 5% sodium laurate (CMC=0.005 wt/wt) and the second with 5% sodium laureth sulfate (CMC=0.0011 wt/wt) (FIG. 8).

[5] = cited from earlier work
[6] = Critical micellization concentration (CMC) of surfactants; type: physicochemical
Text: As noted, the perfume burst is affected not only by the perfume properties, but also by properties of the formulation in which the perfume is found. Thus, the number and type of surfactant micelles found in a surfactant solution also has an effect. […] The critical micellization concentration is defined as the surfactant concentration at which micelles begin to form from unassociated surfactant monomers (M. J. Rosen, Surfactants and Interfacial Phenomena, 2nd Ed., 1989). Conversely, in a surfactant with low critical micelle concentration (e.g., one where micelles do form easily or, stated differently, don't break apart as readily once formed), a perfume, being generally more hydrophobic, tends to stay in the surfactant more readily. As a result, the perfume will tend not to “burst” (increase perfume headspace) as readily and, to achieve more headspace, more dilution may be required. The CMC of the surfactant system also affects “perfume burst”. Thus, for example, a surfactant system of relatively low CMC (e.g., sodium lauryl ether sulfate, also known as SLES) lowers the PBI and can greatly reduce the expected “perfume burst” on dilution. By contrast, surfactant system of relatively higher CMC (e.g., sodium laurate compared to SLES) would raise PBI and can thus increase “perfume burst” on dilution.

With CC(=O)/C(C)=C/C1C(C)=CCCC1(C)C (centres unmarked) [γ-methyl ionone] the “effect of surfactant concentration on fragrance burst” value (shortened to “effect of surfactant concentration”) [1] was “maximum fragrance burst is reached with fewer dilutions in the 5% soap product”, the fragrance burst [2] was 460% and the “dilution behaviour of component (GC headspace)” value [3] was “as high as seven times”. For the same molecule, the “effect of surfactant CMC on fragrance burst” value [4] was “lower overall fragrance burst”.
In the case of CCC(C)(O)CCCC(C)C (centres unmarked) [Tetrahydrolinolool], the fragrance burst [2] is reported as 320%.
For CCCCCCCCCCCC(=O)[O-].[Na+] [Sodium laurate], the CMC ([5]; Example 9) is given as 0.005 wt/wt and the CMC ([5]; Example 11) is given as 0.5 wt. %.
With CCCCCCCC(=O)NCCC[N+](C)(C)CC(=O)[O-] [Caprylamidopropyl betaine] the “CMC (wt./wt.)” value [6] was 0.00032 wt./wt.
In the case of CC(=O)/C=C/C1C(C)=CCCC1(C)C (stereo not drawn) [α-ionone], the fragrance burst [2] is reported as 430%.
For Cc1ccc(C(C)C)cc1 [p-Cymene], the fragrance burst [2] was 120%.
In the case of CC(=O)OCc1ccccc1 [Benzyl Acetate], the fragrance burst [2] is reported as “no fragrance burst at all” and the “dilution behaviour of component (GC headspace)” value [3] is reported as “perfume headspaces decrease upon dilution”.
In the case of CC(C)[C@@H]1CC[C@@H](C)CC1=O [Menthone], the “effect of surfactant concentration” value [1] is reported as “maximum fragrance burst is reached with fewer dilutions in the 5% soap product”.
In the case of Sodium laureth sulfonate (2EO), the “CMC (wt./wt.)” value ([5]; 50° C.) is listed as 0.0011*** wt./wt, the CMC ([5]; Example 9) is listed as 0.0011 wt/wt and the CMC ([5]; Example 11) is listed as 0.1 wt. %.
In the case of Sodium laureth sulfonate (3EO), the “CMC (wt./wt.)” value ([5]; 50° C.) is given as 0.00084*** wt./wt.
For OCCOc1ccccc1 [2-Phenoxyethanol], the fragrance burst [2] was “no fragrance burst at all”.
In the case of CC1=CCC2CC1C2(C)C (stereo not drawn) [α-pinene], the fragrance burst [2] is reported as 50%.
In the case of CCCCCCCCCCCCOC(=O)CCS(=O)(=O)[O-].[Na+] [C12H25OOC(CH2)2SO3^−Na^+ (SCI)], the “CMC (wt./wt.)” value ([5]; 30° C.) is given as 0.00076* (30° C.) wt./wt.
For C=C(C)[C@H]1CC=C(C)CC1 [Limonene], the “effect of surfactant concentration” value [1] was “maximum fragrance burst is reached with fewer dilutions in the 5% soap product”, the fragrance burst [2] was roughly 95% and the “effect of surfactant CMC on fragrance burst” value [4] was “lower overall fragrance burst”.
